According to US12642827B2, “Lactic acid bacteria strain—antibacterial peptides produced by said strain and related pharmaceutical compositions” (UNIVERSITE DE LILLE, priority 2019, dated 2026):
Ends that are not written are not given here. His‑tag = His-Tag tail of six histidine residues (6 His), attached at the N- or C-terminal end

Assays:
Type in all cases: cell-based, Escherichia coli
[1] = tested on: E. coli colistin-resistant strain; experiment: Anti-E. coli activity (AU/mL) of recombinant peptides; settings: purified on Ni-NTA, adjusted to pH 5
Source text: Each of the orf coding for putative bacteriocin was cloned in expression vector suitable for E. coli competent cells. Each orf was cloned under the control of the inducible T7 promoter and with His-Tag (6 His) tail positioned on the N-terminal or C-terminal part. The cloning of each orf at the N- or C-terminal position of Histag tail, has led to 10 recombinant plasm ids. Each of these recombinant plasm ids was introduced in E. coli BL21 (DE3)(plysS) competent cells. The successfully transformed E. coli was regenerated in SOC medium for 1 h at 37° C. with shaking at 160 rpm, and then selected on Luria-Bertani (LB) agar medium supplemented with ampicillin (100 μg mL^−1) and chloramphenicol (30 μg mL^−1) (Sigma Aldrich). After overnight incubation at 37° C., the obtained colonies on LB agar medium with antibiotics were checked for the presence of the recombined plasmid containing the appropriate cloned orfs by PCR using specific primers.
Overnight culture of E. coli strain BL21(DE3)(pLysS), harboring each recombinant plasmid, was diluted to 1% (vol/vol) in LB medium containing ampicillin (100 μg mL^−1) and chloramphenicol (30 μg mL^−1) and then grown aerobically at 37° C. […]
Then the obtained solution was adjusted to pH 5 using acetic acid and then its activity (AU/mL) against E. coli colistin-resistant strain was evaluated, as described previously.

E. coli 184 = settings: E. coli 184, mcr-1+
Experimental: (§1) The cell-free supernatant (CFS) was obtained by centrifugation (8 000 g, 10 min, 4° C.) of a culture of L. paracasei I-CNCM 5369 grown without shaking on MRS medium for 24 to 30 h at 37° C. Then 40 mL of the obtained CFS was loaded onto a reversed phase C18 (Agilent, USA) cartridge. Afterwards, a washing step was performed with 10% (v/v) acetonitrile followed-up by an elution with 40 mL of 20% (v/v) acetonitrile solution in order to eluate the active fraction. The active fraction was dried using SpeedVac and resuspended in 1:10 of the initial volume of ultrapure water. The resulting active solution was designed as fraction E20 (or E20% particularly in the figures) throughout the text. Fraction E20 was stored at 4° C. and therefore used for the different tests to characterize the anti-E. coli activity. Noteworthy, E20 fraction was tested against a panel of E. coli strains with different genotypes to examine their sensibility to the putative bacteriocin(s) contained in this fraction. This assessment was performed by the determination of the minimal inhibitory concentration (MIC) values, which were ranging from 250 to 2 000 μg/mL (Table 5).
(§2) E20 fraction prepared from L. paracasei I-CNCM 5369, was half-diluted and mixed with colistin at a concentration ranging from 1 to 128 μg/mL in BHI medium. The resulting formulations were tested against E. coli 184, carrying the mcr-1 gene, as well as on other E. coli strains (Table 6). After an overnight period of incubation at 37° C., the growth of E. coli strains was checked by spectrophotometry at OD600 nm, and new MIC values of colistin/E20 were determined. […] Indeed, the decreased from 8 to 2 μg/mL in the presence of E20 fraction. This synergetic interaction was as well observed for other E. coli strains, where the MIC values decreased twice for E. coli E4A4WT, 4 times folds for E. coli 289 and 8 times for E. coli E4A4 variant. […] The weight composition of the mixture of E20 fraction+colistin is indicated in brackets next to the MIC value. The first value refers to the amount of colistin in μg/mL, whereas the second in brackets refers to the amount of E20 fraction in μg/mL).
(§3) The alginate nanoparticles (Alg NPs) were obtained by a top down process (ball milling) and used at a concentration of 500 μg/mL. The E20 fraction was mixed at a concentration of 60 μg/mL with this suspension, which corresponds to 12% of the used Alg NPs concentration. […] To gain insights on the effects of alginate nanoparticles, colistin was also loaded on Alg NPs and the resulting formulation (colistin-Alg NPs) was tested against same target E. coli strains.

E. coli 289 = settings: E. coli 289, mcr-1−
Experimental: as §1, §2, §3

E. coli SBS36 = settings: E. coli SBS36, truncated LPS
Experimental: as §1, §2, §3

E. coli TOP10 = settings: E. coli TOP10, LPS-
Experimental: as §1, §2, §3

E. coli CIP7628 = experiment: MIC determination; settings: E. coli CIP7628, reference strain
Experimental: as §1
The alginate nanoparticles (Alg NPs) were obtained by a top down process (ball milling) and used at a concentration of 500 μg/mL. […]

E. coli ATCC8739 [2] = experiment: MIC determination; settings: E. coli ATCC8739, reference strain
Experimental: as §1
as §2, with “The first value refers to the amount of colistin in μg/mL, whereas the second in brackets refers to the amount of E20 fraction in μg/mL).” left out

E. coli E4A4 WT = experiment: MIC determination; settings: environmental strain
Experimental: as §1
as §2, with “The first value refers to the amount of colistin in μg/mL, whereas the second in brackets refers to the amount of E20 fraction in μg/mL).” left out

E. coli E4A4 variant = experiment: MIC determination; settings: colistin unsensibilised
Experimental: as §1
as §2, with “The first value refers to the amount of colistin in μg/mL, whereas the second in brackets refers to the amount of E20 fraction in μg/mL).” left out

panel of E. coli strains = experiment: Anti-E. coli activity / MIC over a panel of strains
E. coli ATCC8739 [3] = experiment: Killing curves; settings: BHI, inhibitory concentration (colistin 16 μg/mL), pH 4.5-5, 37° C.
Experimental: The killing curves were determined on three E. coli strains, because of for their resistance or sensitivity to colistin. These strains were E. coli 184 (mcr-1), E. coli E4A4 variant with resistance to colistin, and E. coli ATCC8739 colistin-sensitive reference strain (Table 5). These strains were inoculated in BHI (Brain Heart Infusion) medium containing the semi-purified fraction of E20 fraction at inhibitory concentration. An untreated E. coli ATCC8739 control treated with inhibitory concentration of colistin (16 μg/mL) was also tested. The pH of the medium was adjusted to 4.5-5 in the various samples, which were incubated at 37° C. for 8 h. At regular intervals of time, samples were taken to determine the number of colony forming units per mL (CFU/mL) under each tested condition.
As depicted in the FIG. 2, the number of CFU/mL of the strains treated with E20 fraction decreased rapidly with no visible growth (0 CFU/mL), after 1 h of incubation. […] A similar data was obtained after 1 h of incubation for E. coli ATCC8739 treated with colistin (16 μg/mL).

Row | Substance | anti E. coli activity [1] | MIC (E. coli 184) | MIC (E. coli 289) | MIC (E. coli SBS36) | MIC (E. coli TOP10) | MIC (E. coli CIP7628) | MIC (E. coli ATCC8739 [2]) | MIC (E. coli E4A4 WT) | MIC (E. coli E4A4 variant) | colistin MIC of E. coli 184 compared to reference strain E. coli ATCC8739 (panel of E. coli strains) | incubation time to no visible growth (0 CFU/mL) (E. coli ATCC8739 [3])
1 | Orf10 HisTag C-ter: recombinant Orf010 peptide with C-terminal His-Tag expressed in E. coli BL21 (DE3) (pLysS) (MYTMTNLKDKELSQITGGFAFVIPVAAILGFLASDAWSHADEIAGGATSGWSLADKSHSL-{His‑tag}; not fully specified; listed as Lactobacillus paracasei) | 200 AU/mL |  |  |  |  |  |  |  |  |  | 
2 | colistin |  | 8 µg/mL | 8 µg/mL | 2 µg/mL | 1 µg/mL | 1 µg/mL | 2 µg/mL | 2 µg/mL | 16 µg/mL | four folds higher | 1 h
